Molecular target: protein disulfide isomerase (PDI, PDIA1) (Homo sapiens, UniProt P07237)
Assay: surface plasmon resonance
Type: binding

Sequence of protein disulfide isomerase (PDI, PDIA1) (P07237 18-508): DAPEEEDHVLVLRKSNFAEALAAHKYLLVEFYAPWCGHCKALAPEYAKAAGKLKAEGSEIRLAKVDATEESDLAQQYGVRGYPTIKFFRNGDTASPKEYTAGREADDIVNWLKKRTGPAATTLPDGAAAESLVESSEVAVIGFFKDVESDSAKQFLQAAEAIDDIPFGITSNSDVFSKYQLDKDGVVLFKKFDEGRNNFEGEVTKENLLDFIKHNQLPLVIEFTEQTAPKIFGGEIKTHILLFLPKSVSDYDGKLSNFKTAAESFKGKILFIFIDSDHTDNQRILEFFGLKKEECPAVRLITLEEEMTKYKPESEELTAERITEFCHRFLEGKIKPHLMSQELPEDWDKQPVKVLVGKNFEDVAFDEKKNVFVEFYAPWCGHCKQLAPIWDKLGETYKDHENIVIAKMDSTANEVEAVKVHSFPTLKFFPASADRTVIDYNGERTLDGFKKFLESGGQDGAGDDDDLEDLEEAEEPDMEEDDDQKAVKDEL

- Kd: 3.3 nM
SMILES: Cc1c(-c2ccc(O)cc2)n(Cc2ccc(OCCN3CCCCCC3)cc2)c2ccc(O)cc12 [BAZ, bazedoxifene]
